From ChEMBL document CHEMBL1135623, “Synthesis and pharmacological evaluation of 1-[(1,2-diphenyl-1H-4-imidazolyl)methyl]-4-phenylpiperazines with clozapine-like mixed activities at dopamine D(2), serotonin, and GABA(A) receptors” (J Med Chem, 2002)

Experiments:
[1] = target: T1, 5-hydroxytryptamine receptor 1A (Rattus norvegicus, UniProt P19327); assay: In vitro binding affinity for serotonin 5-hydroxytryptamine 1A receptor fof rat cerebral cortex using [3H]8-OH-DPAT as radioligand; format: tissue-based
T1 sequence (P19327 whole entry): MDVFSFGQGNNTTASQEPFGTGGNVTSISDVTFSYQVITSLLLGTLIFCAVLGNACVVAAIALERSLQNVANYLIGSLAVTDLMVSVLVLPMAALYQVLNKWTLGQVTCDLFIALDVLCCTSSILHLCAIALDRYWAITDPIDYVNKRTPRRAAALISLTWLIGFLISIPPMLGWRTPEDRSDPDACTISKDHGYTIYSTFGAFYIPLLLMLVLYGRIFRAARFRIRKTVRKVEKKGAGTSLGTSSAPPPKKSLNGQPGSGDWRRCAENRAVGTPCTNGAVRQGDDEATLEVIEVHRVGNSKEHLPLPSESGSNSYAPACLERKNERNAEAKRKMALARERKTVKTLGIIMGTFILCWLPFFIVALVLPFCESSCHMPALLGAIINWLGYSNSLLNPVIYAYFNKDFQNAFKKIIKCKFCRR

[2] = target: 5-hydroxytryptamine receptor 2A (Rattus norvegicus, UniProt P14842); assay: In vitro binding affinity for serotonin 5-hydroxytryptamine 2A receptor of rat cerebral cortex using [3H]ketanserin as radioligand; format: tissue-based
5-hydroxytryptamine receptor 2A, sequence (P14842 whole entry): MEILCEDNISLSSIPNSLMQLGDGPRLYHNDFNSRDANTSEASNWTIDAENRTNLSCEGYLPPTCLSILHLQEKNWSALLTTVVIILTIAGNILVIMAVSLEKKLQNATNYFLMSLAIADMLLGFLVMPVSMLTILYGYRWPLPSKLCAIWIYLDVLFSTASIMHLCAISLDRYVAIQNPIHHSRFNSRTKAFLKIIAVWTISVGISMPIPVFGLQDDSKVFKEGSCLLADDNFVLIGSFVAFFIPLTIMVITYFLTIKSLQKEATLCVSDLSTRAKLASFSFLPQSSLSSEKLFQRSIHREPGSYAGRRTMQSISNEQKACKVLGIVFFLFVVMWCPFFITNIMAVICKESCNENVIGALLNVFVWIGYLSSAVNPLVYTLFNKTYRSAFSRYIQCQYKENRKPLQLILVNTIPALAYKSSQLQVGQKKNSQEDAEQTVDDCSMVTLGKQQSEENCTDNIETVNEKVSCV

Compound	IC50 [1] [nM]	IC50 [2] [nM]
c1ccc(CN2CCN(Cc3cn(-c4ccccc4)c(-c4ccccc4)n3)CC2)cc1	1130	2170
Fc1ccc(-c2nc(CN3CCN(c4ccccc4)CC3)cn2-c2ccc(F)cc2)cc1	525	783
COc1ccccc1N1CCN(Cc2cn(-c3ccccc3)c(-c3ccccc3)n2)CC1	–	131
CCOc1ccccc1N1CCN(Cc2cn(-c3ccccc3)c(-c3ccccc3)n2)CC1	56.9	172
CCOc1ccccc1N1CCN(Cc2cn(-c3ccc(F)cc3)c(-c3ccc(F)cc3)n2)CC1	51.9	–
COc1ccccc1N1CCN(Cc2cn(-c3ccc(F)cc3)c(-c3ccc(F)cc3)n2)CC1	171	259
CN1CCN(Cc2cn(-c3ccccc3)c(-c3ccccc3)n2)CC1	–	> 10000
CN(C)CCCSc1ccccc1NC(=O)/C=C/c1ccccc1 [CINANSERIN]	–	14.8

Further lines, results first:

IC50 [1] [nM]	IC50 [2] [nM]	Compound
806	501	Fc1ccc(N2CCN(Cc3cn(-c4ccccc4)c(-c4ccccc4)n3)CC2)cc1
255	142	Clc1ccccc1N1CCN(Cc2cn(-c3ccccc3)c(-c3ccccc3)n2)CC1
332	25.3	Fc1ccccc1N1CCN(Cc2cn(-c3ccccc3)c(-c3ccccc3)n2)CC1
8440	1920	COc1ccc(N2CCN(Cc3cn(-c4ccccc4)c(-c4ccccc4)n3)CC2)cc1
166	717	Clc1cccc(N2CCN(Cc3cn(-c4ccccc4)c(-c4ccccc4)n3)CC2)c1
271	2340	COc1cccc(N2CCN(Cc3cn(-c4ccccc4)c(-c4ccccc4)n3)CC2)c1
1890	315	Clc1ccc(N2CCN(Cc3cn(-c4ccccc4)c(-c4ccccc4)n3)CC2)cc1
206	2130	FC(F)(F)c1cccc(N2CCN(Cc3cn(-c4ccccc4)c(-c4ccccc4)n3)CC2)c1
197	2020	c1ccc(-c2nc(CN3CCN(c4ccccn4)CC3)cn2-c2ccccc2)cc1
224	1510	FC(F)(F)c1ccc(N2CCN(Cc3cn(-c4ccccc4)c(-c4ccccc4)n3)CC2)cc1
2700	> 10000	c1ccc(-c2nc(CN3CCN(c4ccccc4)CC3)cn2-c2ccccc2)cc1
